{"source": "patent US9708372B2", "about": "“Agonistic autoantibodies to the alpha1-adrenergic receptor and the beta2-adrenergic receptor in Alzheimer's and vascular dementia” (E.R.D.E.-AAK-DIAGNOSTIK GMBH, priority 2011, dated 2017)", "key": {"[1]": {"tested_on": "spontaneously contracting neonatal cardiomyocytes", "test": "Cardiomyocyte contraction bioassay: chronotropic response to patient IgG after preincubation with receptor loop peptides", "type": "cell-based, rat", "settings": "IgG from three AD/vascular dementia patients preincubated 1 hour at 4° C. with 1 μg peptide per 1 μg IgG protein", "protocol": "Cultures of neonatal cardiomyocytes were prepared from new-born, one to three days old rats essentially as described in [15]. Chinese hamster ovary cells stably transfected with the A-isoform of the human α1-AR (CHO-α1) were grown in F12 HAM medium supplemented with glutamine, 10% FCS and 1% penicillin streptomycin at 37° C. and 5% CO2.\nFunctional autoantibodies were detected utilizing the chronotropic responses of cultivated spontaneously contracting neonatal cardiomyocytes. For monitoring the contraction rate of neonatal cardiomyocytes a standardized bioassay based on computer-assisted recording of the contraction rate was employed.\nImmunoglobulin (IgG) fractions from serum samples were prepared according to a standard procedure as described in [6]. Patients IgG were added to cultures of neonatal cardiomyocytes to a final dilution of 1:40. After incubation at 37° C. for 60 minutes, the pulsation rate was measured. A total of up to 30 cells or cell clusters for each sample of a given immunoglobulin fraction was analysed. The chronotropic response to the exposition to patient IgG compared to preceding control recordings is given as increases in the number of contractions per minute. Identification of the target GPCR type was performed using specific receptor antagonists, 10^-7 M prazosin to block the α1-AR and 10^-7 M ICI […] for the β2-AR.\nFor mapping of the target site of agonistic autoantibodies on the receptor, IgG fractions were preincubated for 1 hour at 4° C. with an excess of synthetic peptides corresponding to amino acid sequences of the extracellular loop1 (LGYWAFGRVFCN) or the extracellular loop2 (PAPEDETICQINEE) of the human α1-AR (1 μg peptide per 1 μg IgG protein)."}, "[2]": {"target": "patient IgG (agAAB to the α1-AR)", "test": "ELISA competition of patient IgG binding to the immobilized peptide by free α1-AR loop1 peptide", "set-up": "species or system human", "settings": "free peptide 0.3 nM up to 5 μM, patient IgG preincubated with free peptide 15 minutes, nonlinear regression, read-out: EC50 value, competition of IgG binding to the immobilized peptide by soluble α1-AR loop 1 peptide", "protocol": "Shown are data from representative experiments run in triplicates. Values are corrected for unspecific binding. A: Dependence of antibody binding on patient IgG protein. The given amount of IgG protein refers to 100 μl reaction volume (□) binding in the presence of 0.15 M NaCl; (●) binding in the presence of 0.5 M NaCl. B: Time-dependence of antibody binding. C: Competition of binding by increasing concentrations of the free α1-AR loop1 peptide. Concentrations of the free peptide ranged from 0.3 nM to 5.0 μM. The patient IgG was preincubated with the free peptide in solution for 15 minutes.\nThe binding of agonistic IgG preparations was characterized using standard ELISA techniques. Briefly, biotinylated peptides corresponding to either the first or the second extracellular loop of the human α1A-AR were coupled to pre-blocked streptavidin-coated 96-well plates (Pierce). All experimental steps were performed at room temperature. If not indicated otherwise, 5 μg of IgG protein was used and the incubation time was 30 minutes. As secondary antibody anti-human horseradish conjugated anti-IgG was used. The antibody binding was visualized by the 1-Step Ultra TMB ELISA (Thermo Scientific). The optical density was quantified at 450 nm using a SLT Spectra multiplate reader (TECAN)."}, "[3]": {"target": "T1, A-isoform of the human α1-AR (CHO-α1) (Homo sapiens, UniProt P35348)", "T1 construct": "expressed in transfected cells; host or cells: CHO (Chinese hamster ovary) cells, stably transfected", "T1 sequence (P35348 1-466)": "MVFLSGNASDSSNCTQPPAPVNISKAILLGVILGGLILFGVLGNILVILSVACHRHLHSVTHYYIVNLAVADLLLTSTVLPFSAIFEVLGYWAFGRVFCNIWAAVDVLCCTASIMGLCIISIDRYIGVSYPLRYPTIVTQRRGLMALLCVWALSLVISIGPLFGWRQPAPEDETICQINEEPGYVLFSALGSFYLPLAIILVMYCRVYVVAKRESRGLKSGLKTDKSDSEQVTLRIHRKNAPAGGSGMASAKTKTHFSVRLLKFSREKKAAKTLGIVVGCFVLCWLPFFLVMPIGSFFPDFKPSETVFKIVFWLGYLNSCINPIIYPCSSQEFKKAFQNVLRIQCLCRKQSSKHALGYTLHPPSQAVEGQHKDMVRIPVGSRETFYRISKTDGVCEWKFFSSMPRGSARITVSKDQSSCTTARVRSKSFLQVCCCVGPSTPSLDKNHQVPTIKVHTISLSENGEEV", "test": "Intracellular calcium (Cai) mobilization in CHO-α1 cells", "type": "cell-based", "protocol": "The data represent mean values of independent measurements of three individual cell populations. A: Time dependence of Cai mobilization by patient IgG compared to the α1-AR agonist phenylephrine (PE). The addition of patient IgG preparation and PE is indicated by the arrow. The additions were (▴) 2.5 μg patient IgG; (▪) 5 μg patient IgG; (●) 5 μM PE. B: Effect of 5 μg human control IgG (Δ) and 5 μg patient IgG (♦) on Cai mobilization. The addition of IgG preparations is indicated by the arrow. C: Inhibitory effect of preincubation of patient IgG with the free α1-AR loop1 peptide. Patient IgG was preincubated with 0.25 μM peptide for 15 minutes before addition to the cells. Peak values (five of each individual measurement) were taken for assessing the decrement in Cai mobilization. […]\nThe potential of patients IgG fractions to mobilise intracellular calcium (Cai) was assessed using Chinese hamster ovary cells stably transfected with the A-isoform of the human α1-AR (CHO-α1). The cells were trypsinized and plated on black clear bottom 96-well plates suited for fluorescence measurements (Greiner) at a density of 30 000 cells per well. […] Cai was measured on a Perkin Elmer Victor X2 fluorescence multiplate reader equipped with an injector unit. The cells were excited at wave lengths alternating between 340 nm and 380 nm and the fluorescence signal emitted at 510 nm was recorded. […]"}}, "note": "Read-outs that look alike come from different tables or passages of the source."}
{"sequence": "LGYWAFGRVFCN [loop1 peptide, synthetic peptide corresponding to extracellular loop1 of the human α1-AR]", "values": [{"measurement": "Effect of peptide preincubation on chronotropic response to patient IgG", "setting": "[1]", "value": "nearly abolished"}, {"measurement": "Effect of peptide preincubation on chronotropic response to patient IgG", "setting": "[1]; listed as L1 peptide", "value": "abolished"}, {"measurement": "EC50", "setting": "[2]; listed as extracellular loop1 peptide", "value": 0.03, "unit": "µM"}, {"measurement": "EC50", "setting": "[2]; listed as α1-AR loop 1 peptide", "value": "~0.03", "unit": "µM"}, {"measurement": "Effect of the peptide itself on Cai", "setting": "[3]; CHO-α1 cells, peptide alone", "value": "no effect"}, {"measurement": "Effect of peptide preincubation on elevation of Cai by patient IgG", "setting": "[3]; patient IgG preincubated with 0.25 μM peptide for 15 minutes, p<0.01", "value": "reduced significantly"}]}
{"sequence": "PAPEDETICQINEE (listed as Homo sapiens) [loop2 peptide, synthetic peptide corresponding to extracellular loop2 of the human α1-AR]", "values": [{"measurement": "Effect of peptide preincubation on chronotropic response to patient IgG", "setting": "[1]", "value": "did not affect"}]}
